Values of other authors in publication PMC12032770 (Journal of Experimental & Clinical Cancer Research : CR, 2025).

Tested on: αvβ3 and αvβ5 integrin receptors
Conditions: at low doses
Text: The αvβ3 and αvβ5 integrin receptors are strongly overexpressed on proangiogenic endothelial cells, including those that form tumor-associated blood vessels in GBM, and inhibitors targeting these integrins, such as the cyclic peptide cilengitide (CIL), act as anti-angiogenic agents.

In the case of cilengitide, the “effect on tumor vasculature” value is given as “vascular normalization”.
